Results as given in PubChem BioAssay AID651586 (Broad Institute, 2012).
Where “and” joins values, the source holds several entries; their conditions need not be identical. Equal entries are not always repeated.

Tested on: SK-MEL-5 viability, CellTiter-Glo ATP luminescence, 24 h
Assay: SK-MEL-5 parental cell viability reduction, dose response, orthogonal assay for MITF inhibitor project, CellTiter-Glo luminescence, dry powder, set 8 (AID 651586)

O=C1C=C(Nc2ccccc2)C(=O)c2ccccc21
IC50: 2.56 µM and 6.21 µM
